From the NIST ThermoML archive (doi:10.1016/j.tca.2005.01.064)

Legend:
[1] = excess molar enthalpy (molar enthalpy of mixing); xn = mol fraction of the nth substance listed; details: 308.15 K, 101.33 kPa, Liquid, Flow calorimetry
[2] = 308.15 K; 101.33 kPa; Liquid; Vibrating tube method

OCCO [1,2-ethanediol] + CCO
[1]
Details | excess molar enthalpy [kcal/mol]
x1 = 0.0719 | 0.0526
x1 = 0.1341 | 0.0833
x1 = 0.1886 | 0.103
x1 = 0.2365 | 0.115
x1 = 0.3173 | 0.126
x1 = 0.3826 | 0.131
x1 = 0.4817 | 0.131
x1 = 0.5533 | 0.125
x1 = 0.6502 | 0.115
x1 = 0.7361 | 0.099
x1 = 0.788 | 0.0846
x1 = 0.8479 | 0.0684
x1 = 0.8815 | 0.0565
x1 = 0.9177 | 0.0413
x1 = 0.9371 | 0.0333
x1 = 0.9571 | 0.0229
x1 = 0.9781 | 0.012

OCCOCCO [diethylene glycol]
Details | mass density [kg/m3]
[2] | 1105.65

OCCOCCO [diethylene glycol] + CCO
[1]
Details | excess molar enthalpy [kcal/mol]
x1 = 0.0434 | 0.0185
x1 = 0.0833 | 0.0319
x1 = 0.1199 | 0.0422
x1 = 0.1537 | 0.0483
x1 = 0.2142 | 0.0582
x1 = 0.2663 | 0.063
x1 = 0.3528 | 0.0668
x1 = 0.4208 | 0.0668
x1 = 0.5216 | 0.0644
x1 = 0.6206 | 0.0565
x1 = 0.6856 | 0.0507
x1 = 0.7658 | 0.0417
x1 = 0.8135 | 0.0353
x1 = 0.8674 | 0.0262
x1 = 0.8973 | 0.0217
x1 = 0.929 | 0.0152
x1 = 0.9632 | 0.00786

CCO [ethanol]
Details | mass density [kg/m3]
[2] | 776.41

OCCOCCOCCO [triethylene glycol]
Details | mass density [kg/m3]
[2] | 1112.09

OCCOCCOCCO [triethylene glycol] + CCO
[1]
Details | excess molar enthalpy [kcal/mol]
x1 = 0.0313 | 0.0319
x1 = 0.0606 | 0.0563
x1 = 0.0883 | 0.077
x1 = 0.1143 | 0.0905
x1 = 0.1623 | 0.111
x1 = 0.2047 | 0.125
x1 = 0.2792 | 0.141
x1 = 0.3405 | 0.145
x1 = 0.4365 | 0.15
x1 = 0.5376 | 0.146
x1 = 0.6078 | 0.145
x1 = 0.6992 | 0.132
x1 = 0.756 | 0.117
x1 = 0.823 | 0.0973
x1 = 0.8613 | 0.0786
x1 = 0.9029 | 0.0595
x1 = 0.949 | 0.0324
